Measured values reported in patent publication US20250257034A1, “INDOLE DERIVATIVES AS SEROTONERGIC AGENTS USEFUL FOR THE TREATMENT OF DISORDERS RELATED THERETO” (priority 2023, published 2025).
pIC50: −log10 of the molar value.

What was measured:
[1] = Rat liver microsomes stability; format: in vitro ADME; settings: rat liver microsomes
Method: The objective of this study was to estimate in vitro metabolic stability of exemplary compounds of Formula (I) or a pharmaceutically acceptable salt, solvate, and/or prodrug thereof in pooled human, male rat, and male mouse liver microsomes. The concentrations of compounds in reaction systems were evaluated by LC-MS/MS for estimating the stability in pooled human, male rat, and male mouse liver microsomes. The in vitro intrinsic clearances of test compounds were determined as well.
A master solution in the “Incubation Plate” containing phosphate buffer, ultra-pure H2O, MgCl2 solution and liver microsomes was made according to Table 33. The mixture was pre-warmed at 37° C. water bath for 5 minutes.
40 μL of 10 mM nicotinamide adenine dinucleotide phosphate (NADPH) solution was added to each well. The final concentration of NADPH was 1 mM. The negative control samples were prepared by replacing NADPH with 40 μL of ultra-pure H2O. Samples were prepared in duplicate. Negative controls were prepared in singlet.
The reaction was started with the addition of 4 μL of 200 μM exemplary test compounds of the disclosure or control compounds to each master solution to get the final concentration of 2 μM. This study was performed in duplicate.
Aliquots of 50 μL were taken from the reaction solution at 0, 15, 30, 45, and 60 minutes. The reaction solutions were stopped by the addition of 4 volumes of cold methanol with IS (100 nM alprazolam, 200 nM imipramine, 200 nM labet alol and 2 μM ketoprofen). Samples were centrifuged at 3,220 g for 40 minutes. Aliquot of 90 μL of the supernatant was mixed with 90 μL of ultra-pure H2O and then was used for LC-MS/MS analysis.
LC/MS analysis was performed for all samples from this study using a Shimadzu liquid chromatograph separation system equipped with degasser DGU-20A5R; solvent delivery unit LC-30AD; system controller SIL-30AC; column oven CTO-30A; CTC Analytics HTC PAL System. Mass spectrometric analysis was performed using a Triple Quad™ 5500 instrument.
All calculations were carried out using Microsoft Excel. Peak area ratios of test compound to internal standard (listed in the below table) were determined from extracted ion chromatograms.
All calculations were carried out using Microsoft Excel. Peak areas were determined from extracted ion chromatograms. The slope value, k, was determined by linear regression of the natural logarithm of the remaining percentage of the parent drug vs. incubation time curve.
The in vitro half-life (in vitro t1/2) was determined from the slope value:
Conversion of the in vitro t1/2(min) into the in vitro intrinsic clearance (in vitro CLint, in μL/min/mg proteins) was done using the following equation (mean of duplicate determinations): […]
A master solution in the “Incubation Plate” containing phosphate buffer, ultra-pure H2O, MgCl2 solution and liver microsomes was made according to Table 63. The mixture was pre-warmed at 37° C. water bath for 5 minutes.
40 μL of 10 mM NADPH solution was added to each well. The final concentration of NADPH was 1 mM. The negative control samples were prepared by replacing NADPH with 40 μL of ultra-pure H2O. Samples were prepared in duplicate. Negative controls were prepared in singlet.
Conversion of the in vitro t1/2(min) into the in vitro intrinsic clearance (in vitro C Lt, in μL/min/mg proteins) was done using the following equation (mean of duplicate determinations): […]

human 5-HT1A receptor = target: T1, human 5-HT1A receptor (Homo sapiens, UniProt P08908); experiment: Human 5-HT1A radioligand binding assay ([3H]-8-Hydroxy-DPAT); set-up: expressed in transfected cells; host or cells: HTR1A&Gα15-CHO
T1 sequence (P08908 1-422): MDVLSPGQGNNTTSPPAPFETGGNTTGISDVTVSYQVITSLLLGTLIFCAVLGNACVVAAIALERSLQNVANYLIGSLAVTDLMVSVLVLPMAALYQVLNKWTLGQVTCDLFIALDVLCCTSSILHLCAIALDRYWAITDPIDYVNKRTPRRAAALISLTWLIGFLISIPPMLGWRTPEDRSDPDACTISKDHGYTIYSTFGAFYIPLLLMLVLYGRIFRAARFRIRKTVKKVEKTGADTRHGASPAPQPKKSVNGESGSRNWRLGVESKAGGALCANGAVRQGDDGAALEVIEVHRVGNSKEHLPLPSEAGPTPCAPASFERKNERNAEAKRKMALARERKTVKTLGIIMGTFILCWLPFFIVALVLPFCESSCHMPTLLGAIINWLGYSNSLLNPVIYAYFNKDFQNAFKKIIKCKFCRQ
Method: The objective of this study was to evaluate the binding properties of test compounds on 5-hydroxytryptamine receptor 1A (5-HT1A).
1. The assay buffer was prepared following Table 21 below.
2. 8 doses of reference and test compounds were prepared starting from 10 mM stock solution as required by 5-fold serial dilutions with 100% (v/v) DMSO.
3. UniFilter-96 GF/B plate was pretreated: • i. 50 μl/well of 0.5% (v/v) PEI was added to UniFilter-96 G F/B plates. The plates were sealed and incubated at 4° C. for 3 hrs. • ii. After incubation, the plates were washed 3 times with ice-cold wash buffer (50 mM Tris, pH7.4).
4. Assay plate was prepared: • i. Cell membrane was diluted with assay buffer and 100 μl/well was added to 96 round well plates to reach a concentration of 20 μg/well. • ii. 8 concentrations of reference or test compounds were prepared and 50 μl/well was added to 96 round deep well plates. • iii. [3H]-8-Hydroxy-DPAT was diluted with assay buffer to 2 nM (4×final concentration) and 50 μl/well was added to 96 round well plates.
5. The plate was centrifuged at 1000 rpm for 30 secs and then agitated at 600 rpm, R.T. for 5 min.
6. The plates were sealed, and the plate was incubated at 27° C. for 90 min.
7. The incubation was stopped by vacuum filtration onto GF/B filter plates followed by 4 times washing with ice-cold wash buffer (50 mM Tris, pH7.4).
9. The filter plates were sealed and 40 μl/well of scintillation cocktail was added.
10. The plate was read by using a Microbeta^2 microplate counter.
1. For reference and test compounds, the results were expressed as % Inhibition, using the normalization equation: N=100-100x(U-C2)/(C1-C2), where U is the unknown value, C1 is the average of high controls, and C2 is the average of low controls.
2. The IC50 was determined by fitting percentage of inhibition as a […] of compound concentrations with Hill equation using XLfit.
The objective of this study was to evaluate the binding properties of test compounds on 5-hydroxytryptamine receptor 1A (5-HTA).
1. The assay buffer was prepared following Table 50 below.
3. UniFilter-96 G FIB plate was pretreated: • i. 50 μl/well of 0.5% (v/v) PEI was added to UniFilter-96 G FIB plates. The plates were sealed and incubated at 4° C. for 3 hrs. • ii. After incubation, the plates were washed 3 times with ice-cold wash buffer (50 mM Tris, pH7.4).
6. The plates were sealed and the plate was incubated at 27° C. for 90 min.

Compound: CN(C)CCc1c[nH]c2ccc(OCCOC(F)F)cc12 [Compound I-128, 2-(5-(2-(Difluoromethoxy)ethoxy)-1H-indol-3-yl)-N,N-dimethylethan-1-amine]
- half-life at 2 μM ([1]; male, pooled liver microsomes, 2 μM compound, 0.5 mg/mL): 7.43 min
- CLint scaled at 2 μM ([1]; male, pooled liver microsomes, read-out: Scaled-up CLint): 334 mL/min/kg
- microsomal CLint at 2 μM ([1]; male, rat, pooled liver microsomes, 2 μM compound, 0.5 mg/mL, read-out: CLint (μL/min/mg protein)): 187 µL/min/mg
- Predicted hepatic CL [1]: 47.38 mL/min/kg
- Remaining Percentage (%) ([1]; With Cofactors, 0 min): 100.00%
- Remaining Percentage (%) ([1]; With Cofactors, 30 min): 6.09%
- Remaining Percentage (%) ([1]; With Cofactors, 60 min): 0.56%
- Remaining Percentage (%) ([1]; Without Cofactors, 0 min): 100.00%
- Remaining Percentage (%) ([1]; Without Cofactors, 30 min): 70.92%
- Remaining Percentage (%) ([1]; Without Cofactors, 60 min): 52.18%
- pIC50 (human 5-HT1A receptor): 7.06
